Patent publication US8519124B2, “Chemokine receptor antagonists and use thereof” (Ono Pharmaceutical Co., Ltd., priority 2005, dated 2013)

What was measured:
CXCR4 = biological target: T1, CXCR4 (Homo sapiens, UniProt P61073); experiment: Study for inhibition of binding human SDF-1 to CEM cells (125I-SDF-1); details: 125I-SDF-1 binding to CEM cells
T1 construct: a human T cell strain in which CXCR4 is known to be expressed; endogenous in cells; host or cells: CEM cells (human T cell strain)
Excerpt: Specifically, as a system of screening a compound that inhibits the binding between SDF-1 and CXCR4, for example a system of measuring the binding between iodine-labeled SDF-1 and a human T cell strain in which CXCR4 is known to be expressed is operable. The identical idea is possible since macrophage (R5) HIV and RANTES, MIP-1α, and MIP-1β all bind to CCR5.
Study for Inhibition of Binding Human SDF-1 to CEM Cells
To human T cell strain CEM cells in a binding buffer (containing HEPES and BSA), the test compound and ^125I-SDF-1 (NEN) were added and the mixture was incubated at 4° C. for 60 minutes. The reacted CEM cells were rapidly filtrated with a GF/B membrane filter plate (Packard) to adsorb. The plate was washed with PBS three times and then dried. Microscint+20 (Packard) was added thereto. An amount of the radioactivity bound to the CEM cells was measured using Top Count (Packard) and inhibition (%) of the test compound was calculated according to the following equation: Inhibition={(Et−Ea)/(Et−Ec)}×100
Et: amount of radioactivity when the test compound is not added,
Ec: amount of radioactivity when non-radioactive SDF-1 (Pepro Tech) is added in an amount of 1000 times as much as ^125I-SDF-1 as a test compound, and
Ea: amount of radioactivity when the test compound is added.

[1] = tested on: CHL/IU (cell line derived from a Chinese hamster lung); experiment: Phospholipidosis detecting system using fluorescent labeling phospholipid analog (NBD-PE); type: cell-based; details: compound dose: 50 μM; for The rate of increase of phopholipid accumulation (%): CHL/IU cells, about 24 hours, relative to NBD-PE control
Description: Investigation with a Phospholipidosis Detecting System Using Fluorescent Labeling Phospholipidosis Analog (i) Phospholipid Accumulation Measurement 100 μL/well as required (1 dose 2 wells) of cell suspension of CHL/IU (cell line derived from a Chinese hamster lung) adjusted by MEM (7×10^4 cells/mL) adjusted by MEM (minimum essential medium) culture medium was added to a 96-well plate (96-well clear-bottom plate), and cultured for about 24 hours. After culture, the supernatant of the 96-well plate was removed, and the 100 μL/well compounds of each concentration dissolved and suspended in a minimum essential medium (MEM) including 25 μmol/L nitrobenzoxadiazole dipalmitoyl phosphatidylethanolamine (NBD-PE) (hereinafter abbreviated as a NPD-PE medium) were added and treated for about 24 hours. The treatment concentrations of each compound were set to be 6.25, 12.5, 25, 50 and 100 μmol/L. The positive control substance was set to be amiodarone hydrochloride, and the treatment concentrations were set to be 1.25, 2.5, 5, 10 and 20 μmol/L. In addition, 5 untreated controls (only MEM) and 5 NBD-PE controls (made by means of adding a 1/100 amount of DMSO to the NBD-PE culture medium) were set per compound, and cultured in the same manner. After finishing the culture, the cultures were washed twice with Phosphate buffered saline (hereinafter abbreviated as PBS) (−) 100 μL/well, and the MEM (100 μL) was added to all of the treatment wells including 2 empty wells for WST-1 background controls and cultured for about a half hour. The fluorescence intensities of each well were measured by using a microplate reader (manufactured by Molecular Devices Inc., SPECTRA max M2; the excitation wavelength 485 nm/the fluorescence wavelength 535 nm). (ii) Analysis Using the average values of each dose×2 wells, a phospholipid increase rate (%) to the NBD-PE control was calculated by using the following calculating formula: Phospholipid increase rate (%)=100×{(test article fluorescence intensity−untreated control fluorescence intensity)/(NBD-PE control fluorescence intensity−untreated control fluorescence intensity (iii) Cytotoxicity Assay The 96-well plate measured in the phospholipid accumulation measurement was measured by means of Plate Reader (manufactured by Molecular Devices Inc., SPECTRA max M2) with the main wavelength of 450 nm and the correct wavelength of 690 nm to calculate a Pre value. An amount of 5 μL/well of Premix WS T-1 was added to each of the 96 hole plates by which Pre measurement was conducted. After culture for 2 to 4 hours, the 96-well plate was measured as well as the Pre measurement to calculate an Aft value. Then, the background control value was subtracted from the each measured value. A value which was calculated by subtracting the Pre value from the Aft value was used, then the cell growth rate (%) was calculated by using the following calculating formula: Cell growth rate (%)=100×{(test article OD)/(NBD-PE control OD)} (iv) Determination A test dose that indicated value of equal to or more than 25% of the maximum phospholipid accumulation increase rate of amiodarone which was the positive control was determined as positive. In addition, the dose whose cell growth rate was equal to or less than 50% in the cytotoxicity assay was not used for determination of existence or nonexistence of a phospholipidosis inductive effect.

T1 sequence (P61073 whole entry): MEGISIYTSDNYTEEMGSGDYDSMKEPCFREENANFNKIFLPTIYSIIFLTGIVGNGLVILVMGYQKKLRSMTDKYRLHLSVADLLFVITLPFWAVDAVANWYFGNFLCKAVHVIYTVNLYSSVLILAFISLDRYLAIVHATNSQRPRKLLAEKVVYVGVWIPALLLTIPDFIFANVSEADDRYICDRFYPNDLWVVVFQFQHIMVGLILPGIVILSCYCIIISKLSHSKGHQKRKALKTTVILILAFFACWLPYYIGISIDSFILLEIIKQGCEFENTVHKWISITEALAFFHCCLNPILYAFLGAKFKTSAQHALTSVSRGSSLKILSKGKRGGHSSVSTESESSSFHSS

Row | SMILES | IC50 (CXCR4) [nM] | Judgement (phospholipidosis inductive effect) [1] | The rate of increase of phopholipid accumulation (%) [1] [%]
1 | CC(C)CN1CCC2(CCN(Cc3ccc(C(=O)N(Cc4ncc[nH]4)Cc4ncc[nH]4)cc3)CC2)C1 [Example 8 (113), N,N-bis(1H-imidazol-2-ylmethyl)-4-[(2-isobutyl-2,8-diazaspiro[4.5]dec-8-yl)methyl]benzamide] | 15 | negative | 10
2 | CC(C)(C)CN1CCC2(CC1)CCN(C(=O)Cc1ccc(CN(Cc3ncc[nH]3)Cc3ncc[nH]3)cc1)C2 [Example 40 (68), 1-(4-{2-[8-(2,2-dimethylpropyl)-2,8-diazaspiro[4.5]dec-2-yl]-2-oxoethyl}phenyl)-N,N-bis(1H-imidazol-2-ylmethyl)methanamine] |  | negative | 18
3 | CCC(CC)N1CCC2(CCN(C(=O)c3ccc(CN(Cc4ncc[nH]4)Cc4nccn4C)cc3)C2)CC1 [Example 40 (72), 1-(4-{[8-(1-ethylpropyl)-2,8-diazaspiro[4.5]dec-2-yl]carbonyl}phenyl)-N-(1H-imidazol-2-ylmethyl)-N-[(1-methyl-1H-imidazol-2-yl)methyl]methanamine] |  | negative | 16
4 | O=C(CC(=O)N1CCC2(CCN(C3CCCCC3)CC2)C1)N1CCC(N(Cc2ncc[nH]2)Cc2ncc[nH]2)CC1 [Example 65 (4), 1-[3-(8-cyclohexyl-2,8-diazaspiro[4.5]dec-2-yl)-3-oxopropanoyl]-N,N-bis(1H-imidazol-2-ylmethyl)-4-piperidinamine] |  | negative | 12
